This passage reports Ki results from ChEMBL document CHEMBL5365480, “Potent and selective carbonic anhydrase inhibition activities of pyrazolones bearing benzenesulfonamides” (Bioorg Med Chem Lett, 2023).

For one assay, the target named is Carbonic anhydrase 1 (Homo sapiens, UniProt P00915). The assay is described as follows: Inhibition of human CA I assessed as inhibition constant by stopped-flow CO2 hydrase assay method.
The target of a further assay is Carbonic anhydrase 2 (Homo sapiens, UniProt P00918). The assay is described as follows: Inhibition of human CA II assessed as inhibition constant by stopped-flow CO2 hydrase assay method.
The target of another assay is Carbonic anhydrase 9 (Homo sapiens, UniProt Q16790). The assay is described as follows: Inhibition of human CA IX assessed as inhibition constant by stopped-flow CO2 hydrase assay method.
The target in a further assay is Carbonic anhydrase 12 (Homo sapiens, UniProt O43570). The assay is described as follows: Inhibition of human CA XII assessed as inhibition constant by stopped-flow CO2 hydrase assay method.
Carbonic anhydrase 12, sequence (O43570 whole entry): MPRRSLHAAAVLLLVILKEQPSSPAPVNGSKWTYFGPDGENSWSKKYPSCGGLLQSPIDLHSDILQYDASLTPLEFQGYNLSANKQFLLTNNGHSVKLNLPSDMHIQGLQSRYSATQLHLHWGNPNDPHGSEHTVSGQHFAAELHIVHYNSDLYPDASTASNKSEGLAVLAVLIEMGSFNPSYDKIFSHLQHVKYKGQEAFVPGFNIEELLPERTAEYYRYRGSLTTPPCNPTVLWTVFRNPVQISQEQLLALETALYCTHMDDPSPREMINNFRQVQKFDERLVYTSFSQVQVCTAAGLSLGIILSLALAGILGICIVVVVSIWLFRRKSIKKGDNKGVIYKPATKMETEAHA

Carbonic anhydrase 1, sequence (P00915 whole entry): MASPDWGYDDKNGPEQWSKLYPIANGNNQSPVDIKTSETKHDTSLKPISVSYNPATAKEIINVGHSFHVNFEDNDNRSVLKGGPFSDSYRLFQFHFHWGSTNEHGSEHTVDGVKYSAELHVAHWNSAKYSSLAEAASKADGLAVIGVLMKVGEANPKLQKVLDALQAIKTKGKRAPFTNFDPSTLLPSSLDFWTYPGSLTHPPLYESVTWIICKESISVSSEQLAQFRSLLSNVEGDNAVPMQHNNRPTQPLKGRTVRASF

With `CC1=NN(c2ccc(C#N)cc2)C(=O)/C1=N/Nc1cccc(S(N)(=O)=O)c1`, the inhibition constant Ki on Carbonic anhydrase 1 stood at 495 nM; on Carbonic anhydrase 2, 0.5 nM; on Carbonic anhydrase 9, 60.7 nM; on Carbonic anhydrase 12 it was 3.9 nM.
Take `CC1=NN(c2ccc(Cl)cc2Cl)C(=O)/C1=N/Nc1ccc(S(N)(=O)=O)cc1`: the inhibition constant (Ki) was determined as 5270 nM at Carbonic anhydrase 1, 72 nM on Carbonic anhydrase 2, 8.5 nM on Carbonic anhydrase 9 and 6.7 nM at Carbonic anhydrase 12.
The matching figures for `CC1=NN(c2ccccc2Cl)C(=O)/C1=N/Nc1ccc(S(N)(=O)=O)cc1`: 7420 nM, 77.6 nM, 31.2 nM and 73.7 nM.
With `CC1=NN(c2ccccc2Cl)C(=O)/C1=N/Nc1cccc(S(N)(=O)=O)c1`, the Ki is 9080 nM at Carbonic anhydrase 1, 290 nM at Carbonic anhydrase 2, 70.7 nM at Carbonic anhydrase 9 and 123 nM on Carbonic anhydrase 12.
Consider `CC1=NN(c2ccc(C)cc2)C(=O)/C1=N/Nc1cccc(S(N)(=O)=O)c1`, for which the Ki on Carbonic anhydrase 1 came out at 376 nM; on Carbonic anhydrase 2, 186 nM; on Carbonic anhydrase 9, 44.9 nM; on Carbonic anhydrase 12, 40.6 nM.
On to `CC1=NN(c2ccccc2)C(=O)/C1=N/Nc1ccc(S(N)(=O)=O)cc1`, for which the Ki turned out to be 712 nM at Carbonic anhydrase 1, 8.7 nM at Carbonic anhydrase 9 and 48.8 nM at Carbonic anhydrase 12.
For `CC1=NNC(=O)/C1=N/Nc1ccc(S(N)(=O)=O)cc1`, the Ki on Carbonic anhydrase 1 amounted to 53.1 nM; at Carbonic anhydrase 2 it was 2.5 nM; at Carbonic anhydrase 9 it was 36.2 nM; at Carbonic anhydrase 12, 161 nM.
In the same order, the values of `CC1=NN(c2ccccc2)C(=O)/C1=N/Nc1cccc(S(N)(=O)=O)c1` are 8310 nM, 6.6 nM, 15 nM and 53.5 nM.
In the same order, the values of `CC1=NN(c2ccc(Cl)cc2)C(=O)/C1=N/Nc1ccc(S(N)(=O)=O)cc1` are 8640 nM, 21.1 nM, 1.1 nM and 24.6 nM.
In the same order, the values of `CC1=NNC(=O)/C1=N/Nc1cccc(S(N)(=O)=O)c1` are 217 nM, 139 nM, 22.9 nM and 87.2 nM.
Take `CC1=NN(c2ccc(Cl)cc2Cl)C(=O)/C1=N/Nc1cccc(S(N)(=O)=O)c1`: the Ki at Carbonic anhydrase 1 amounted to 53200 nM; at Carbonic anhydrase 2 it was 473 nM; on Carbonic anhydrase 9, 158 nM; on Carbonic anhydrase 12 it was 273 nM.
The matching figures for `CC1=NN(c2ccc(C#N)cc2)C(=O)/C1=N/Nc1ccc(S(N)(=O)=O)cc1`: 504 nM, 59 nM, 3.2 nM and 9.2 nM.
In the same order, the values of `CC1=NN(c2ccc(C)cc2)C(=O)/C1=N/Nc1ccc(S(N)(=O)=O)cc1` are 337 nM, 6.1 nM, 25.1 nM and 66.1 nM.
Turning to `CC1=NN(c2ccc(Cl)cc2)C(=O)/C1=N/Nc1cccc(S(N)(=O)=O)c1`, the Ki on Carbonic anhydrase 1 was found to be 7800 nM; on Carbonic anhydrase 2, 327 nM; on Carbonic anhydrase 9, 40.2 nM; on Carbonic anhydrase 12 it was 90.6 nM.
